From the CheMixHub viscosity set

Assay: xn = mol fraction of the nth substance listed

O=C1CCCCC1 + CCCCCCCC
viscosity [mPa·s]
Conditions | 298.15 K | 303.15 K | 308.15 K
101 kPa, x2 = 0.0833 | 1.59 | – | –
101 kPa, x2 = 0.1727 | 1.31 | – | –
101 kPa, x2 = 0.3177 | 1.023 | – | –
101 kPa, x2 = 0.4682 | 0.829 | – | –
101 kPa, x2 = 0.6244 | 0.693 | – | –
101 kPa, x2 = 0.7825 | 0.602 | – | –
101 kPa, x2 = 0.8935 | 0.55 | – | –
101.33 kPa, x1 = 0.0981 | 0.537 | 0.505 | 0.479
101.33 kPa, x1 = 0.2053 | 0.583 | 0.547 | 0.516
101.33 kPa, x1 = 0.3022 | 0.635 | 0.595 | 0.559
101.33 kPa, x1 = 0.4042 | 0.706 | 0.658 | 0.618
101.33 kPa, x1 = 0.5032 | 0.787 | 0.733 | 0.686
101.33 kPa, x1 = 0.603 | 0.895 | 0.831 | 0.774
101.33 kPa, x1 = 0.7025 | 1.039 | 0.96 | 0.894
101.33 kPa, x1 = 0.8021 | 1.264 | 1.165 | 1.054
101.33 kPa, x1 = 0.8984 | 1.508 | 1.38 | 1.271

OCCOCCOCCOCCOCCOCCOCCO + O
viscosity [mPa·s], 100 kPa
Conditions | 293.15 K | 298.15 K | 303.15 K | 308.15 K | 313.15 K | 318.15 K | 323.15 K
x2 = 0.059 | 97.27 | 73.66 | 57.03 | 45.14 | 36.26 | 29.64 | 24.53
x2 = 0.088 | 93.78 | 71.34 | 53.69 | 42.57 | 34.29 | 28 | 23.21
x2 = 0.188 | 92.26 | 69.66 | 53.76 | 42.35 | 33.98 | 27.72 | 22.88
x2 = 0.221 | 92.02 | 69.89 | 53.68 | 42.29 | 33.97 | 27.67 | 22.86

CC(=O)CC(C)C + CCOCCO
298.15 K, 101.33 kPa
Conditions | viscosity [mPa·s]
x1 = 0.1481 | 1.043
x1 = 0.2727 | 0.943
x1 = 0.3972 | 0.854
x1 = 0.511 | 0.782
x1 = 0.6235 | 0.718
x1 = 0.7252 | 0.664
x1 = 0.824 | 0.617
x1 = 0.8892 | 0.588

CC=Cc1ccc2c(c1)OCO2 + CCCCCOC(C)=O
Conditions | viscosity [mPa·s]
298.15 K, 101 kPa, x1 = 0.137 | 0.958

CC(C)CC(C)(C)C + COC(=O)OC
viscosity [mPa·s], 101 kPa
Conditions | x2 = 0.1235 | x2 = 0.2408 | x2 = 0.3521 | x2 = 0.4583 | x2 = 0.5592 | x2 = 0.6554 | x2 = 0.7475 | x2 = 0.8352 | x2 = 0.9193
293.15 K | 0.4747 | 0.4613 | 0.4659 | 0.4672 | 0.4798 | 0.4974 | 0.5114 | 0.5331 | 0.5636
298.15 K | 0.4464 | 0.4356 | 0.44 | 0.4397 | 0.4483 | 0.4637 | 0.4815 | 0.5015 | 0.5303
303.15 K | 0.4224 | 0.4116 | 0.4159 | 0.4143 | 0.4231 | 0.4353 | 0.4517 | 0.4719 | 0.5004
313.15 K | 0.3788 | 0.3706 | 0.373 | 0.3699 | 0.3779 | 0.3929 | 0.4049 | 0.4201 | 0.4475
323.15 K | 0.3424 | 0.3338 | 0.3339 | 0.3344 | 0.3399 | 0.3487 | 0.3616 | 0.376 | 0.3958
